# Test results from US12116635B2, “Methods for detecting and treating cancers having adenosine pathway activation” (Corvus Pharmaceuticals, Inc., priority 2018, dated 2024).
# “Also recorded” adds a separate entry of the source.
# Experiments:
# [1] = tested on: PBMCs; test: CXCL5 protein ELISA in culture supernatants of PBMCs treated with NECA +/- CPI-444; format: cell-based, human
# Method: Expression of CXCL5 was determined by ELISA 2 days after activation.
# FIGS. 2B and 2C show the response of PBMCs from two different donors to NECA+/−CPI-444 treatment. DMSO was used as vehicle control. […] This control helps establish that the induction of CXCL5 is specific to signaling through adenosine receptors.
# NECA activation of CXCL5 protein expression was evaluated. PBMCs were harvested from two different human donors. […] CPI-444 (Corvus Pharmaceuticals) is an antagonist of the adenosine A2A receptor. CXCL5 protein in the culture supernatants was evaluated by ELISA two days after activation. CXCL5 expression is activated by NECA. […] This establishes that the induction of CXCL5 is specific to signaling through adenosine receptors.
# [2] = tested on: A2AR; test: In vitro A2AR stimulation gene signature +/- CPI-444 (transcript and protein); format: cell-based, human; conditions: at the transcript and protein level
# Method: RNA purified from normal, healthy human peripheral blood mononuclear cells (PBMCs) treated with 5′-N-ethylcarboxamidoadenosine (NECA) and activated with anti-CD3/CD28 antibody were analyzed by NanoString hybridization-based quantification (NanoString Technologies, Inc.). […] Each dot represents the expression level of a specific gene. Dot shade represents the concentration of NECA used and/or different PBMC donors. […] Increases in monocyte/macrophage inflammatory mediators such as IL-1b and CCL2, 3, 7, 8, 20 were also observed, as were increases in SERPINB2, S100A8, PTGS2, THBS1. Expression of CXCL10 and GZMB were decreased, consistent with a suppressed IFNg response. […] A2AR agonists induce a specific gene signature (increase in a certain subset of genes and/or decrease in a second subset of genes) dominated by immunosuppressive mediators of MDSC and monocyte/macrophage biology. Inhibition of these genes by CPI-444 are observed. These gene signatures may be used as biomarkers for patient selection.
# [3] = tested on: advanced cancers; test: Ongoing phase 1/1b trial in patients with advanced cancers; format: in vivo, human; conditions: as a monotherapy and in combination with atezolizumab
# Description: “Adenosine receptor antagonist” refers to a molecule that inhibits activity of adenosine receptors (e.g. A2A or A2B receptors), typically through direct action. Adenosine receptors antagonists can be small or large molecule antagonists. In embodiments, CPI-444 is an example A2A receptor antagonist. […] CPI-444 is described, for example, in PCT Patent Publication No. WO 2017/112917; each of which is incorporated herein by reference in its entirety.
# [4] = tested on: human peripheral blood mononuclear cells (PBMCs); test: NanoString quantification of mRNA in NECA-treated, anti-CD3/CD28-activated PBMCs; format: cell-based; conditions: 0.1 μM, 1 μM, and/or 10 μM NECA vs vehicle-treated control
# Method: RNA purified from normal, healthy human peripheral blood mononuclear cells (PBMCs) treated with 5′-N-ethylcarboxamidoadenosine (NECA) and activated with anti-CD3/CD28 antibody were analyzed by NanoString hybridization-based quantification (NanoString Technologies, Inc.). […] Each dot represents the expression level of a specific gene. Dot shade represents the concentration of NECA used and/or different PBMC donors.
# [5] = tested on: human peripheral blood mononuclear cells (PBMCs); test: RNA sequencing (RNA-Seq) of NECA-treated PBMCs; format: cell-based
# Method: RNA purified from normal, healthy human peripheral blood mononuclear cells (PBMCs) treated with 5′-N-ethylcarboxamidoadenosine (NECA) and activated with anti-CD3/CD28 antibody were analyzed by NanoString hybridization-based quantification (NanoString Technologies, Inc.). […] Each dot represents the expression level of a specific gene. Dot shade represents the concentration of NECA used and/or different PBMC donors. […] Data were confirmed by RNA sequencing (RNA-Seq).
smiles,measurement,setting,value
"Cc1ccc(-c2nc(N)nc3c2nnn3Cc2cccc(CO[C@H]3CCOC3)n2)o1 [CPI-444, (S)-7-(5-methylfuran-2-yl)-3-((6-(((tetrahydrofuran-3-yl)oxy)methyl)pyridin-2-yl)methyl)-3H-[1,2,3]triazolo[4,5-d]pyrimidin-5-amine]",Blocking of NECA-induced CXCL5 protein expression,"[1]; PBMCs treated with NECA, followed by CPI-444, then anti-CD3/CD28, ELISA two days after activation",can be blocked
same,Inhibition of A2AR-stimulation-induced gene expression changes,[2],inhibited these changes
same,anti-tumor activity,[3],demonstrated anti-tumor activity
"CCNC(=O)[C@H]1O[C@@H](n2cnc3c(N)ncnc32)[C@H](O)[C@@H]1O [NECA, 5′-N-ethylcarboxamidoadenosine]",logFC CD14,[4],0.4485
same,logFC CD86,[4],0.3148
same,logFC CLEC5A,[4],0.3833
same,logFC CXCL1,[4],0.6909
same,logFC CXCL2,[4],1.093
same,logFC CXCL3,[4],1.101
same,logFC CXCL5,[4],1.338
same,logFC CXCL6,[4],0.6535
same,logFC IL1A,[4],0.6367
same,logFC IL1B,[4],0.6345
same,logFC IL6,[4],0.7014
same,logFC IL8,[4],0.6411
same,logFC IL23A,[4],0.4628
same,logFC IL24,[4],0.5768
same,logFC PLAUR,[4],0.5031
same,logFC PPBP,[4],0.683
same,logFC PTGS2,[4],0.6892
same,logFC SLC11A1,[4],0.7022
same,logFC TBX21,[4],−0.1238
same,logFC THBS1,[4],0.8703
same,logFC CCL24,[5]; Control (DMSO) vs 0.1 μm NECA,−1.068
same,logFC CD93,[5]; Control (DMSO) vs 0.1 μm NECA,0.9975
same,logFC CSF3,[5]; Control (DMSO) vs 0.1 μm NECA,1.603
same,logFC CXCL2,[5]; Control (DMSO) vs 0.1 μm NECA,1.452
same,logFC CXCL3,[5]; Control (DMSO) vs 0.1 μm NECA,1.694
same,logFC CXCL5,[5]; Control (DMSO) vs 0.1 μm NECA,2.388
same,logFC EHF,[5]; Control (DMSO) vs 0.1 μm NECA,−0.2753
same,logFC EML6,[5]; Control (DMSO) vs 0.1 μm NECA,0.2117
same,logFC EPB41L3,[5]; Control (DMSO) vs 0.1 μm NECA,1.183
same,logFC FUT7,[5]; Control (DMSO) vs 0.1 μm NECA,−0.2135
same,logFC HAS1,[5]; Control (DMSO) vs 0.1 μm NECA,2.059
same,logFC IL23A,[5]; Control (DMSO) vs 0.1 μm NECA,0.7971
same,logFC INHBA,[5]; Control (DMSO) vs 0.1 μm NECA,0.5196
same,logFC KLC4,[5]; Control (DMSO) vs 0.1 μm NECA,0.216
same,logFC LAYN,[5]; Control (DMSO) vs 0.1 μm NECA,0.4228
same,logFC MRPL11,[5]; Control (DMSO) vs 0.1 μm NECA,−0.19
same,logFC MS4A7,[5]; Control (DMSO) vs 0.1 μm NECA,0.9319
same,logFC NPR1,[5]; Control (DMSO) vs 0.1 μm NECA,0.7892
same,logFC OST4,[5]; Control (DMSO) vs 0.1 μm NECA,0.2352
same,logFC PADI2,[5]; Control (DMSO) vs 0.1 μm NECA,0.4802
same,logFC PTGS2,[5]; Control (DMSO) vs 0.1 μm NECA,1.184
same,logFC SLC7A7,[5]; Control (DMSO) vs 0.1 μm NECA,0.5935
same,logFC SPON1,[5]; Control (DMSO) vs 0.1 μm NECA,0.3611
same,logFC ST6GALNAC2,[5]; Control (DMSO) vs 0.1 μm NECA,0.5342
same,logFC SYTL3,[5]; Control (DMSO) vs 0.1 μm NECA,0.2894
same,logFC WDR83OS,[5]; Control (DMSO) vs 0.1 μm NECA,−0.2872
same,logFC ZBTB18,[5]; Control (DMSO) vs 0.1 μm NECA,0.2431
same,logFC CCDC60,[5]; Control (DMSO) vs 1 μm NECA,0.07658
same,logFC CD93,[5]; Control (DMSO) vs 1 μm NECA,1.454
same,logFC CSF3,[5]; Control (DMSO) vs 1 μm NECA,2.802
same,logFC CXCL2,[5]; Control (DMSO) vs 1 μm NECA,2.361
same,logFC CXCL3,[5]; Control (DMSO) vs 1 μm NECA,2.573
same,logFC CXCL5,[5]; Control (DMSO) vs 1 μm NECA,3.451
same,logFC EHF,[5]; Control (DMSO) vs 1 μm NECA,−0.2522
same,logFC EMR3,[5]; Control (DMSO) vs 1 μm NECA,1.364
same,logFC EPB41L3,[5]; Control (DMSO) vs 1 μm NECA,1.854
same,logFC EREG,[5]; Control (DMSO) vs 1 μm NECA,1.89
same,logFC FUT7,[5]; Control (DMSO) vs 1 μm NECA,−0.4158
same,logFC GPR157,[5]; Control (DMSO) vs 1 μm NECA,0.9283
same,logFC HAS1,[5]; Control (DMSO) vs 1 μm NECA,3.238
same,logFC IL23A,[5]; Control (DMSO) vs 1 μm NECA,1.363
same,logFC IL24,[5]; Control (DMSO) vs 1 μm NECA,2.876
same,logFC INHBA,[5]; Control (DMSO) vs 1 μm NECA,0.9638
same,logFC LAYN,[5]; Control (DMSO) vs 1 μm NECA,0.5277
same,logFC MS4A7,[5]; Control (DMSO) vs 1 μm NECA,1.535
same,logFC OST4,[5]; Control (DMSO) vs 1 μm NECA,−0.1747
same,logFC PADI2,[5]; Control (DMSO) vs 1 μm NECA,0.7173
same,logFC PID1,[5]; Control (DMSO) vs 1 μm NECA,1.729
same,logFC PTGS2,[5]; Control (DMSO) vs 1 μm NECA,2.23
same,logFC SLC7A7,[5]; Control (DMSO) vs 1 μm NECA,0.9514
same,logFC SPON1,[5]; Control (DMSO) vs 1 μm NECA,0.5667
same,logFC ST6GALNAC2,[5]; Control (DMSO) vs 1 μm NECA,0.8306
same,logFC TGIF1,[5]; Control (DMSO) vs 1 μm NECA,0.4769
same,logFC ZBTB18,[5]; Control (DMSO) vs 1 μm NECA,0.3385
same,logFC CCNE1,[5]; Control (DMSO) vs 10 μm NECA,−0.4518
same,logFC CD93,[5]; Control (DMSO) vs 10 μm NECA,1.895
same,logFC CD300E,[5]; Control (DMSO) vs 10 μm NECA,1.71
same,logFC CSF3,[5]; Control (DMSO) vs 10 μm NECA,3.508
same,logFC CXCL2,[5]; Control (DMSO) vs 10 μm NECA,3.011
same,logFC CXCL3,[5]; Control (DMSO) vs 10 μm NECA,3.106
same,logFC CXCL5,[5]; Control (DMSO) vs 10 μm NECA,3.354
same,logFC DENA5,[5]; Control (DMSO) vs 10 μm NECA,0.6559
same,logFC ECEL1,[5]; Control (DMSO) vs 10 μm NECA,0.6918
same,logFC EPB41L3,[5]; Control (DMSO) vs 10 μm NECA,2
same,logFC GALM,[5]; Control (DMSO) vs 10 μm NECA,−0.3189
same,logFC GBP6,[5]; Control (DMSO) vs 10 μm NECA,−0.8039
same,logFC GPR157,[5]; Control (DMSO) vs 10 μm NECA,1.139
same,logFC HAS1,[5]; Control (DMSO) vs 10 μm NECA,3.807
same,logFC IL5,[5]; Control (DMSO) vs 10 μm NECA,−0.6885
same,logFC IL23A,[5]; Control (DMSO) vs 10 μm NECA,1.332
same,logFC INHBA,[5]; Control (DMSO) vs 10 μm NECA,1.192
same,logFC LAP3,[5]; Control (DMSO) vs 10 μm NECA,−0.4286
same,logFC LOC100505585,[5]; Control (DMSO) vs 10 μm NECA,0.6639
same,logFC NID1,[5]; Control (DMSO) vs 10 μm NECA,1.087
same,logFC PADI2,[5]; Control (DMSO) vs 10 μm NECA,0.9386
same,logFC PID1,[5]; Control (DMSO) vs 10 μm NECA,2.124
same,logFC PTGS2,[5]; Control (DMSO) vs 10 μm NECA,2.349
same,logFC RHCG,[5]; Control (DMSO) vs 10 μm NECA,0.5767
same,logFC SLC7A7,[5]; Control (DMSO) vs 10 μm NECA,0.9134
same,logFC SPON1,[5]; Control (DMSO) vs 10 μm NECA,0.568
same,logFC ST6GALNAC2,[5]; Control (DMSO) vs 10 μm NECA,0.876
same,CXCL5 protein in the culture supernatants (ELISA),"[1]; PBMCs from two human donors, anti-CD3/CD28 activated, two days after activation, vs DMSO",activated; also recorded: dose-dependent increase in CXCL5
